Consider 5 compounds from US12162879B2, “Pyridopyrimidine derivative, preparation method therefor and medical use thereof” (Jiangsu Hengrui Medicine Co., Ltd., priority 2018, dated 2024).

Molecules are shown by their SMILES.

Type in all cases: cell-based
Assay [1] has as its system peripheral blood mononuclear cells (PBMC). The assay is described as follows: Stimulation of IFNγ secretion from PBMC. The conditions noted are these: minimum effective concentration, human PBMC, 24 hours. The procedure:
(§1) The stimulating effect of the compounds of the present invention on the ability of secretion of IL12 and IFN γ from PBMC was determined by the following experimental method.
(§2) • 1. RMPI 1640 (Invitrogen, 11875); • 2. FBS (Gibco, 10099-141); • 3. Ficoll-Paque PREMIUM (GE, 17-5442-02); • 4. Trypan blue solution (Sigma, T8154-100 ML); • 5. SepMate™-50 (Stemcell, 15460); • 6. Bright-LineIM blood cell counter (Sigma, Z359629-1EA); • 7. 96-well cell culture plate (Corning, 3599); • 8. 96-well v-bottom plate (Corning, 3894); • 9. Human IL-12 ELISA kit (Neobioscience Technology Co., EHC152.96); • 10. Human IFN γ kit (cisbio, 62HIFNGPEG); and • 11. PHERAStar multi-function microplate reader (BMG, PHERAStar). II. Experimental Procedures
(§3) The compound was diluted with pure DMSO to a maximum concentration of 5 mM, and a total of 9 points were obtained by a 4-fold gradient dilution. 4 μl of the compound solution was then added to 196 μl of RMPI 1640 medium containing 10% FBS and mixed well. 50 μl of the mixture was taken and added to a 96-well cell culture plate.
(§4) All reagents were equilibrated to room temperature. 60 ml of blood from a healthy human and the same volume of PBS (containing 2% FBS) were added to a 250 ml culture flask, gently pipetted, mixed well and diluted. 15 ml of lymphocyte separation solution Ficoll-Paque PREMIUM was added to a 50 ml PBMC centrifuge tube SepMate™-50, followed by the addition of 30 ml of the above diluted blood. The mixture was centrifuged at 1200 g for 10 minutes at room temperature. The supernatant was taken and then centrifuged at 300 g for 8 minutes. The cells were re-suspended in the RMPI 1640 medium containing 10% FBS and counted, and the number of PBMCs was adjusted to 3.33×10^6 cells/ml. 150 μl of the cell solution was added to the plate containing the compounds, and incubated in an incubator at 37° C., 5.0% CO2 for 24 hours. The cell culture plate was placed in a centrifuge, and centrifuged at 1200 rpm for 10 minutes at room temperature. 150 μl of the supernatant was taken from each well.
The reagents in the Human IFN γ test kit were equilibrated to room temperature. The standard and detection antibody were prepared according to the kit's instruction under dark conditions. 16 μl of the supernatant obtained by centrifugation was added to each well, and 4 μl of freshly prepared mixed detection antibody was added to each well. The solution was mixed well by shaking, and incubated overnight in the dark at room temperature. The plate was read by the PHERAStar multi-function microplate reader.
(§5) The concentration of the compound that can stimulate PBMC to produce […] that is 3 times higher than the average value of the group without the compound (SD of the group without the compound) was defined as the minimum effective concentration (MEC) value of the compound.

For assay [2] the test system is unchanged. The assay is described as follows: Stimulation of IL12 secretion from PBMC (ELISA). The conditions noted are these: minimum effective concentration, human PBMC, 24 hours. As for the experimental part:
as §1, §2, §3, §4
The reagents in the Human IL-12 ELISA kit were equilibrated to room temperature. According to the kit's instruction, the highest concentration of the standard is 2000 pg/ml, and a total of 8 points were obtained by a 2-fold gradient dilution. The sample to be tested was diluted 20 folds. The solution was then added to a pre-coated plate at 100 μl/well. The plate was incubated at 37° C. for 90 minutes and rinsed. The […] was added at 100 μl/well, and the plate was incubated at 37° C. for 60 minutes and rinsed. HRP binding enzyme was added at 100 μl/well, and the plate was incubated at 37° C. for 30 minutes and rinsed. TMB was added, and the plate was incubated at room temperature for 5 minutes. Finally, the stop solution was added to stop the reaction, and the absorbance at 450 nm was read by the microplate reader.
as §5

For assay [3], the target named is human TLR7 (Homo sapiens (Human), UniProt Q9NYK1). The assay is described as follows: Agonist activity on human TLR7 in HEK-Blue hTLR7 cells. The conditions noted are these: 16 hours, OD 620 nm. As for the experimental part: • 1. DMEM(Gibco, 10564-029); • 2. Fetal bovine serum (GIBCO, 10099); • 3. Trypan blue solution (Sigma, T8154-100 ML); • 4. Flexstation 3 multi-function microplate reader (Molecular Devices); • 5. HEK-Blue™ hTLR8 cell line (InvivoGen, hkb-hTLR8), or HEK-Blue™ hTLR7 cell line (InvivoGen, hkb-hTLR7); • 6. HEK-Blue detection reagent (InvivoGen, hb-det3); and • 7. Phosphate buffer solution (PBS) pH 7.4 (Shanghai Basalmedia Technologies Co., Ltd., B320). II. Experimental Procedures a. Determination of Agonist Activity on Human TLR8
Chain of human TLR7 (Q9NYK1 27-1049): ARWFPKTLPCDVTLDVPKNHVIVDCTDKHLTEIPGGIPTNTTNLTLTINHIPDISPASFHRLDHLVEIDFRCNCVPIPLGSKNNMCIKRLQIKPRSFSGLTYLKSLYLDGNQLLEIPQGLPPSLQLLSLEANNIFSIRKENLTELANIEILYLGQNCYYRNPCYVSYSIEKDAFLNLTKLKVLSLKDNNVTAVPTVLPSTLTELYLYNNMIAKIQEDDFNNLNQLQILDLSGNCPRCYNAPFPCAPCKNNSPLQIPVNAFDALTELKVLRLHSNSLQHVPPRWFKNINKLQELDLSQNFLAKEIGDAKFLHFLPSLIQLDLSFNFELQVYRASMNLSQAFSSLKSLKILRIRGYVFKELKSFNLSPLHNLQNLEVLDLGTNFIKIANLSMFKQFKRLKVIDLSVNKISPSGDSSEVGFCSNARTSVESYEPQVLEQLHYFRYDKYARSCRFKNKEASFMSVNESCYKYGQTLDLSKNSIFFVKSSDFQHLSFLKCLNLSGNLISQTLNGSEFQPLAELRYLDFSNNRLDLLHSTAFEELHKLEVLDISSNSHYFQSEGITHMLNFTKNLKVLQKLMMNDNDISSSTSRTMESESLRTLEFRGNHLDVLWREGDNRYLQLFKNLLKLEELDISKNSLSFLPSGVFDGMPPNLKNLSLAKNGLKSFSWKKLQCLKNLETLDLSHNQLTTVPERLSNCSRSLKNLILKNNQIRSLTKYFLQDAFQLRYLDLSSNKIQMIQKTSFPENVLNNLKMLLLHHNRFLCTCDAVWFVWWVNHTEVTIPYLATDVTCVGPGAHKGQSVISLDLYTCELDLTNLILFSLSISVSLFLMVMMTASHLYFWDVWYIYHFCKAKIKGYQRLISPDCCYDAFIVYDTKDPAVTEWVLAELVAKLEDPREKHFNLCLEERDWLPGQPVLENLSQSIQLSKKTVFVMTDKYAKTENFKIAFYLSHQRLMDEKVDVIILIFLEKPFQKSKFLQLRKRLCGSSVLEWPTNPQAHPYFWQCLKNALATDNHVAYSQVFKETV
A bag of HEK-Blue detection dry powder was dissolved in 50 ml of water free of endotoxin, and the solution was then placed in an incubator at 37° C. for 10 minutes followed by sterile filtration to prepare a HEK-Blue detection medium. The compound was firstly formulated into a 20 mM stock solution, then diluted with pure DMSO to a maximum concentration of 6×10^6 nM, and a total of 10 points were obtained by a 3-fold gradient dilution. The above formulated compound was firstly diluted 20-fold with the medium, then 20 μl of the diluted compound was added to each well.
The supernate was removed from the HEK-Blue™ hTLR7 cells, to which 2-5 ml of pre-warmed PBS was then added. The cells were placed in an incubator for 1-2 minutes, gently pipetted, and counted by trypan blue staining. The cells were re-suspended in the HEK-Blue detection medium to adjust the concentration to 2.2×10^5 cells/ml. 180 μl of cells was added to the above 96-well plate comprising 20 μl of the compound, and incubated at 37° C. for 16 hours.
The corresponding OD values were obtained by a microplate reader at a wavelength of 620 nm, and the EC50 values of the compounds were calculated by Graphpad Prism.

In the case of `CCCC[C@](C)(CO)Nc1nc(N)nc2cc(-c3ccc(CN4CCCC4)nc3)cnc12` [Example 2, (R)-2-((2-Amino-7-(6-(pyrrolidin-1-ylmethyl)pyridin-3-yl)pyrido[3,2-d]pyrimidin-4-yl)amino)-2-methylhexan-1-ol], the “IFNγ MEC” value in assay [1] was found to be 24 nM. Besides, the “IL12 MEC” value in assay [2] was determined as 23 nM.
In assay [3], `CCCC[C@](C)(CO)Nc1nc(N)nc2cc(-c3ccc(C4CCN(C)CC4)nc3)cnc12` [Example 4, (R)-2-((2-Amino-7-(6-(1-methylpiperidin-4-yl)pyridin-3-yl)pyrido[3,2-d]pyrimidin-4-yl)amino)-2-methylhexan-1-ol] gave an EC50 greater than 30 µM and an Emax of 12%. Further, the “IFNγ MEC” value in assay [1] was 33 nM. Moreover, the “IL12 MEC” value in assay [2] is 31 nM.
Take `CCCCC(C)(CO)Nc1nc(N)nc2cc(-c3ccc(CN4CCN(C)CC4)nc3)cnc12` (centres unmarked) [Example 5, 2-((2-Amino-7-(6-((4-methylpiperazin-1-yl)methyl)pyridin-3-yl)pyrido[3,2-d]pyrimidin-4-yl)amino)-2-methylhexan-1-ol]: in assay [3], the EC50 was greater than 30 µM and the maximum response (Emax) amounted to 14%.
Take `CCCC[C@](C)(CO)Nc1nc(N)nc2cc(-c3ccc(CN4CCN(C)CC4)nc3)cnc12` [Example 6, (R)-2-((2-Amino-7-(6-((4-methylpiperazin-1-yl)methyl)pyridin-3-yl)pyrido[3,2-d]pyrimidin-4-yl)amino)-2-methylhexan-1-ol]: in assay [3], the EC50 is greater than 30 µM and the Emax came to 14%. In assay [2], the “IL12 MEC” value came out at 41 nM.
With `CCCC[C@](C)(CO)Nc1nc(N)nc2cc(-c3cnc(C4CCN(C)CC4)nc3)cnc12` [Example 8, (R)-2-((2-Amino-7-(2-(1-methylpiperidin-4-yl)pyrimidin-5-yl)pyrido[3,2-d]pyrimidin-4-yl)amino)-2-methylhexan-1-ol], in assay [3], the EC50 is greater than 19 µM and the maximum response (Emax) stood at 73%. In assay [2], the “IL12 MEC” value is listed as 5 nM.
